From publication PMC10582583, “The novel cyclophilin inhibitor C105SR reduces hepatic ischaemia–reperfusion injury via mitoprotection” (JHEP Reports, 2023)

Tests used:
[1] = system: isolated mouse liver mitochondria; assay: Calcium retention capacity (CRC) assay in isolated liver mitochondria; format: biochemical; settings: for mitochondrial CRC vs maximum effect of CsA: 5 μM concentration and above (Fig. 2E); for mitochondrial CRC vs CsA and ALV: 0.5 and 1 μM (Fig. 2E); for maximal mitochondrial CRC, diastereoisomer vs racemic mixture: Fig. 2E; for mitochondrial CRC vs control: diastereoisomers at 100 μM (Fig. 2C); for EC50: isolated mouse liver mitochondria
[2] = system: AML-12 cells; assay: LDH release, hypoxia/reoxygenation; format: cell-based, mouse; settings: for inhibition of LDH release / LDH release: 4 h hypoxia, 2 h reoxygenation; for LDH release: applied during hypoxia and reoxygenation
Experimental: (§1) As expected, cells subjected to hypoxia/reoxygenation were characterised by greater LDH release and reduced cell viability as compared to untreated controls (Fig. 4A and 4B). […]
(§2) Hypoxia/reoxygenation (H/R) in vitro model. AML-12 mouse hepatocyte line was obtained from American Type Culture Collection (ATCC) and maintained in DMEM/F12 culture medium at 37°C with 5% CO2. HepaRG human hepatocyte line was obtained from American Type Culture Collection (ATCC) and maintained in William’S E culture medium at 37°C with 5% CO2.When indicated, cells were incubated in phosphate buffered saline at 37°C in a hypoxic chamber filled with 94% N2, 1% O2, 5% CO2 for 4 h to mimic ischemic conditions. Then, cells were transferred to a CO2 incubator at 37°C in regular DMEM/F12 culture medium for 1 or 2 h under normoxic conditions (74% N2, 21% O2, 5% CO2). SMCypIs or vehicle (DMSO) were added during the hypoxia period, during the reoxygenation period, or during both. CsA and ALV were used as positive controls for hepatic protection against H/R injury. […]
Cell viability assays. Lactate dehydrogenase (LDH) release in culture medium was assessed using the commercially non-radioactive CytoTox-96 kit (Promega, Madison, Wisconsin) following the manufacturer’s instructions. Briefly, cell culture media were collected and the LDH activity was determined by measuring absorbance at 491 nm with a spectrometer (Multiskan skyHigh). For 3-(4,5-dimethylthiazol-2-yl)-2,5-diphenyltetrazolium bromide (MTT) assay, cells were incubated with a solution of MTT (0.5 mg/mL) for 2 h at 37°C. The medium was then removed and 50 µL DMSO was added to each well. Optical density of purple formazan product was measured at 550 nm. Cell viability was expressed as a percentage of the untreated control.

[3] = system: AML-12 cells; assay: Cell viability by MTT assay, hypoxia/reoxygenation; format: cell-based, mouse; settings: 4 h hypoxia, 2 h reoxygenation; for cell viability (MTT): applied during hypoxia and reoxygenation
Experimental: as §1
Hypoxia/reoxygenation (H/R) in vitro model. […]
as §2, with “Collection” for “Hypoxia/reoxygenation (H/R) in vitro model. AML-12 mouse hepatocyte line was obtained from American Type Culture Collection (ATCC) and maintained in DMEM/F12 culture medium at 37°C with 5% CO2. HepaRG human hepatocyte line was obtained from American Type Culture Collection”
Cell viability assays. […]
dimethylthiazol-2-yl)-2,5-diphenyltetrazolium bromide (MTT) assay, cells were incubated with a solution of MTT (0.5 mg/mL) for 2 h at 37°C. The medium was then removed and 50 µL DMSO was added to each well. Optical density of purple formazan product was measured at 550 nm. Cell viability was expressed as a percentage of the untreated control.

[4] = system: AML-12 cells; assay: Caspase 3/7 activity assay, hypoxia/reoxygenation; format: cell-based, mouse; settings: applied during hypoxia and reoxygenation; 4 h hypoxia, 2 h reoxygenation
Experimental: Necrosis is the major cause of cell death during hepatic IRI. However, mPTP opening also leads to apoptosis resulting from mitochondrial swelling, rupture of the outer mitochondrial membrane and subsequent release of cytochrome C into the cytosol.[20] We investigated whether C105SR and C110SR protected against mPTP opening-induced apoptotic cell death.
Mouse serum analysis. Blood was collected at 6 h of reperfusion. Alanine aminotransferase (ALT) and aspartate aminotransferase (AST) activities were measured on an automated analyzer in the Biochemistry Department of Henri Mondor Hospital.
Histological Analysis. Hematoxylin and eosin staining was performed on 4-μm thick formalin-fixed paraffin-embedded tissue sections. […] Necrosis areas were quantified with […]
TUNEL Assay. […] The number of TUNEL-positive cells were quantified using QuPath on slides scanned at x20 magnification using a virtual slide scanning system (Axio scan7/ZEN slidescan).
Caspase 3/7 activity assay. Caspase 3/7 activity was assessed using the commercially Caspase-Glo® 3/7 assay (Promega, Madison, Wisconsin) following the manufacturer’s instructions.
Briefly, Caspase-Glo® 3/7 Reagent was incubated with the cells and the caspase3/7 activity was determined by measuring luminescence with a luminometer (Berthold). Caspase3/7 activity was expressed as a percentage of the untreated control. […]

Compound | mitochondrial CRC vs maximum effect of CsA [1] | mitochondrial CRC vs CsA and ALV [1] | maximal mitochondrial CRC, diastereoisomer vs racemic mixture [1] | mitochondrial CRC vs control [1] | EC50 [1] | inhibition of LDH release ([2]; 0.5 μM) | LDH release [2] | increase in cell viability ([3]; 0.5 μM) | cell viability (MTT) [3] | protection against hypoxia/reoxygenation-induced cell apoptosis (caspase 3/7 activity) [4] | inhibition of cell death ([2]; 0.5 μM) | viability at 0.5 µM ([3]; Mus musculus, AML12, 0.5 μM, read-out: increase in cell viability)
COc1ccc(Br)cc1[C@H](NC(=O)NCc1ccc(N)cc1)C(=O)N1CCC[C@@H]1c1cccc2ccsc12 [Compound C110SR, 1-(4-aminobenzyl)-3-((S)-2-((R)-2-(benzo[b]thiophen-7-yl)pyrrolidin-1-yl)-1-(5-bromo-2-methoxyphenyl)-2-oxoethyl)urea] | stronger effect than the maximum effect achieved by CsA | comparable to those of CsA and ALV | 670 ± 52 nmol Ca2+/mg of mitochondrial | greater than control mitochondrial CRC | 140 ± 20 nM | not effective | reduced LDH release | not effective | increased cell viability | protected against hypoxia/reoxygenation-induced cell apoptosis |  | 
COc1ccc(Br)cc1[C@H](NC(=O)NCc1ccc2c(c1)CCCN2)C(=O)N1CCC[C@@H]1c1cccc2ccsc12 [Compound C105SR, 1-((S)-2-((R)-2-(benzo[b]thiophen-7-yl)pyrrolidin-1-yl)-1-(5-bromo-2-methoxyphenyl)-2-oxoethyl)-3-((1,2,3,4-tetrahydroquinolin-6-yl)methyl)urea] | stronger effect than the maximum effect achieved by CsA | comparable to those of CsA and ALV | 595 ± 38 nmol Ca2+/mg of mitochondrial | greater than control mitochondrial CRC | 50 ± 20 nM | potent activity inhibiting LDH release | reduced LDH release |  | increased cell viability | protected against hypoxia/reoxygenation-induced cell apoptosis | inhibited | ~75%
